{
  "source": "patent US9315532B2",
  "about": "“Fatty acid carbohydrate hybrid molecules as therapeutic agents and methods thereof” (The Johns Hopkins University, priority 2005, dated 2016)",
  "key": {"p21WAF1": {"tested_on": "p21WAF1", "assay": "Endogenous p21WAF1 assay (anti-p21WAF1 antibody, flow cytometry) in Jurkat cells", "assay_type": "cell-based, human", "conditions": "one week, 1 at 250 μM, 5 at 2.5 mM", "experimental": "Endogenous expression of p21^WAF1 was detected following a reported procedure (58) with minor modifications. Jurkat cells (5.0×10^6 cells in 10 mL medium) were incubated with either ethanol or 1 (250 μM or 5 (2.5 mM). On a daily basis, aliquots of cells (˜1.0×10^6 per sample) were taken, washed with PBS (2×1.0 mL), fixed with Reagent A (Fix and Perm Kit, Caltag Laboratories, CA, Cat. No. GAS-003) for 10 min at room temperature, washed with washing buffer (PBS containing 5.0% FBS, 0.1% NaN3), re-suspended in 95% v/v methanol and kept on ice. After 30 min, cells were again washed with washing buffer and incubated with FITC-conjugated anti-p21^WAF1 antibody (Calbiochem, San Diego, Calif., Cat. No. OP64F) at 2.0 μg/mL in Reagent B (100 μL) (Fix and Perm Kit, Caltag Laboratories) for 1.0 h at room temperature in the dark. Finally, cells were re-suspended in washing buffer (500 μL) and analyzed by flow cytometry. Three replicate samples were taken for each condition and 10,000 events were counted for each sample."}, "p21WAF1/Cip1 promoter": {"tested_on": "p21WAF1/Cip1 promoter", "assay": "Luc-p21WAF1/Cip1 luciferase reporter gene assay in AD293 (HEK) cells", "assay_type": "cell-based, human", "experimental": "The plasmid Luc-p21^Cip1/WAF1 (a gift from Vogelstein Laboratory, JHMI, Baltimore, Md.) was amplified and purified utilizing a plasmid maxi kit (Cat. No. 12163. Qiagen, Valencia, Calif.) following the manufacturer's protocol. HEK cells (2.5×10^5) were seeded in 3.0 mL medium and grown in 6-well T. C. plates. Transfection was performed using lipofectamine 2000 (Cat. No. 11668-019, Invitrogen, Carlsbad, Calif.) following the protocol supplier's protocol. Cells were trypsinized 24 h after transfection and seeded at 250,000 cells per well with concentrations of 1-4 shown in FIG. 3a or 1, 5, and ManNAc plus 5 at the concentrations shown in FIG. 3c. After 72 h, the cells were trypsinized, counted and lysed in 300 μL of luciferase cell culture lysis buffer and diluted five-fold in the same buffer. Luminometry was performed utilizing the ‘Luciferase Assay System’ (Cat. No. 1500, 4550, Promega, Madison, Wis.) following supplier's protocol. Luciferase Assay Reagent (100 μL) was added to the cell lysate (20 μL) in luminometer tubes (Cat. No. 55.476, Sarstedt, Newton, N.C.) and the luminescence was measured immediately using a Berthold Sirius Luminometer. The final values were normalized relative to ethanol-treated controls and reported on a per cell basis."}, "HeLa cells": {"tested_on": "HeLa cells", "assay": "Morphological changes to HeLa cells", "assay_type": "cell-based, human", "conditions": "3 days; 1 at 250 μM, 5 at 5.0 mM", "experimental": "(§1) The studies on morphological changes induced by sodium butyrate (5) and But4ManNAc (1) were performed following a reported procedure (45). Briefly, HeLa cells (200,000 cells per well in a 6-well plate) were plated and allowed to form monolayers. After 24 h, the supernatant was aspirated, fresh medium (4.0 mL) was added and treated with either ethanol (20 μL (0.5%), control), 5 (5.0 mM), or 1 (250 μM). For the AD 293 (HEK) cells 2.0×10^6 cells in 10 mL of medium (100 mm tissue culture dishes) were plated and treated, immediately after plating, with either ethanol (50 μL, control), 5 (5.0 mM), or 1 (250 μM). Images were acquired at various time intervals under bright field using a Nikon Eclipse TE200 inverted microscope equipped with a DXM 1200 digital camera."}, "AD293 (HEK) cells": {"tested_on": "AD293 (HEK) cells", "assay": "Morphological changes / toxicity in AD293 (HEK) cells", "assay_type": "cell-based, human", "conditions": "2 days; 1 at 250 μM, 5 at 5.0 mM", "experimental": "as §1"}, "Jurkat cells [1]": {"tested_on": "Jurkat cells", "assay": "Toxicity of sodium butyrate (5) towards cells primed with ManNAc", "assay_type": "cell-based, human", "experimental": "Jurkat cells (5.0×10^5 per mL) were incubated with PBS and ManNAc at 50 or 100 mM. After 48 h, the cells were counted, harvested, washed once in fresh medium and plated in a 24-well plate containing various concentrations of sodium butyrate (5) (0-2.0 mM; a stock solution of 200 mM in PBS was used for dilutions and control samples). Cell cultures were maintained and growth was monitored for 15 days as described above under the toxicity and growth inhibition assays."}, "Jurkat cells [2]": {"tested_on": "Jurkat cells", "assay": "Flow cytometry analysis of cell cycle status (PI/RNase A)", "assay_type": "cell-based, human", "conditions": "human cancer cells", "experimental": "The cell cycle arrest induced by butyrate analogs was studied following the standard protocol (49). Briefly, Jurkat cells (2.3×10^5 cells/mL) were incubated with various concentrations of 1 (0, 25, 50, 75, 100, 150 and 200 μM); 2 (200 μM); 3 (200 μM); and 4 (200 μM) for five days. The cells were then harvested, counted, washed twice with PBS, re-suspended in PBS (500 μL), added to a cold solution of 78% aqueous ethanol (4.5 mL) using a glass Pasteur pipette and kept at 2.0° C. for at least 24 h. The fixed cells were centrifuged twice to remove the ethanol completely, re-suspended in propidium iodide (PI)/ribonuclease A (RNase A) staining buffer (BD Pharmingen, Catalog No. 550825, San Diego, Calif.) (500 μL for 1.0×10^6 cells), incubated at 37° C. for 15 min and analyzed by flow cytometry. The cellular aggregates were excluded from single cell populations using an area-width plot (FL2—PT fluorescence) for the cell cycle status determination. At least 10,000 gated events were counted for each determination.\nJurkat cells (2.5×10^5 cells/mL) were incubated with either ethanol (0.2%) or 1 (100 μM or 200 μM). Aliquots of cell suspensions were taken on day 0 and days 2-6, washed with PBS (twice) and fixed in 75% ethanol at 2.0° C. for at least 48 h. The cells were stained with PI/RNase staining buffer and analyzed by flow cytometry as given above."}, "Jurkat cells [3]": {"tested_on": "Jurkat cells", "assay": "Cell viability assay (trypan blue exclusion)", "assay_type": "cell-based, human", "conditions": "200 μM", "experimental": "Jurkat cells (2.0×10^5 cells/mL) were seeded with 1-4 at 200 μM in 6-well T. C. plates. Aliquots of cell suspension (20 μL) were removed on a daily basis diluted with either PBS (20 μL) or trypan blue solution (20 μL) and cell viability was determined by using the standard trypan blue exclusion method; three replicate counts were taken for each condition."}, "Jurkat cells [4]": {"tested_on": "Jurkat cells", "assay": "Toxicity and growth inhibition assays (cell counts on days 3, 5 and 15)", "assay_type": "cell-based, human", "conditions": "Jurkat cells, 0-320 μM", "experimental": "For cell culture studies, But4ManNAc (1) (50) was used as a mixture of anomers (α/β=10/90), But4GlcNAc (2) as pure α-anomer and But5Man (3) as pure β-anomer (It is noteworthy that the intracellular hydrolysis of butyrate esters makes the anomeric configuration less relevant in these studies and we found similar cellular effects between the α- and β-anomers in long term toxicity). Stock solutions of the sugar analogs were made in ethanol at concentrations of 10 mM and 50 mM. In the case of cells growing in suspension the solutions of 1-4 (or an ethanol control at an equivalent volume) were coated onto dishes and the ethanol was allowed to evaporate prior to plating. Unless otherwise noted, throughout this study Jurkat cells (Clone E-6, ATCC, Manassas, Va.) were cultured in RPMI 1640 medium supplemented with 300 mg/L glutamine, 5.0% fetal bovine serum (HyClone, Logan, Utah) and 1.0% of a 100× dilution of a pen/strep stock solution containing penicillin (100 units/mL) and streptomycin (100 μg/mL); HL-60 cells (ATCC, Manassas, Va.) were cultured in RPMI 1640 medium supplemented with 10% FBS and pen/strep; and AD293 (HEK) cells (Stratagene, La Jolla, Calif.) were grown in DMEM medium with 10% FBS and pen/strep. In all cases, cells were incubated in a standard 37° C. in a 5.0% CO2, water-saturated environment. Cell counting was performed with a Beckman-Coulter Z2 particle counter and hemacytometer.\nSolutions of the analogs in EtOH (10 mM stock) were coated onto 24-well plates at a range of concentrations from 0-320 μM and ethanol was allowed to evaporate. Jurkat cells (1.0×10^5 cells) in 0.5 mL of medium were plated in each well (day 0). On days 3 and 5, fresh medium (1.0 mL) was added to each well. Cell cultures were mixed by gentle pipetting and 100 μL of cell suspension was taken from each well and counted. On days 7, 9, 11, 13 and 15, 1.0 mL of cell suspension was removed from each well after thorough mixing and fresh medium (1.0 mL) was added. Cells were counted on day 15 and the cell density was plotted as a percentage of control (as was done for cell counts from days 3 and 5)."}, "[5]": {"tested_on": "sialic acid biosynthesis in Jurkat cells", "assay": "Assay for total sialic acid production (periodate-resorcinol)", "assay_type": "cell-based, human", "conditions": "50 and 100 mM, 48 h", "experimental": "Jurkat cells (5.0×10^6 cells in 10 mL medium) were incubated with 1-5 at various concentrations. […] The cell lysates were analyzed by using an adapted version of the periodate-resorcinol assay (36, 59) with the periodic acid oxidation step performed on ice to allow quantification of total (i.e., free monosaccharide plus glycoconjugate-bound) sialic acid. For each assay, a standard curve was obtained using N-acetylneuraminic acid (Pfanstiehl, Waukegan, Ill.) for calibration."}},
  "data": [
    {"compound": "CCCC(=O)[O-].[Na+]", "note": "[compound 5, Sodium n-butyrate, reference compound]", "values": [
      {"measurement": "endogenous p21WAF1 levels", "setting": "p21WAF1", "result": "increased p21^WAF1 levels"},
      {"measurement": "concentration level required for p21WAF1/Cip1 activation", "setting": "p21WAF1/Cip1 promoter", "result": "millimolar concentrations required"},
      {"measurement": "morphological changes / differentiation of HeLa cells", "setting": "HeLa cells", "result": "growth of extended processes"},
      {"measurement": "apoptosis / toxicity in AD293 cells", "setting": "AD293 (HEK) cells", "result": "toxicity"},
      {"measurement": "growth of ManNAc-treated cells compared to untreated controls", "setting": "Jurkat cells [1]; Jurkat cells pre-incubated with ManNAc 50 or 100 mM, 5 at 0-2.0 mM, five days", "result": "inhibited"},
      {"measurement": "concentration at which ManNAc-treated cells showed susceptibility", "setting": "Jurkat cells [1]; Jurkat cells pre-incubated with ManNAc, day 15", "result": "≥ 2.0", "unit": "mM"},
      {"measurement": "growth of control cells (without ManNAc)", "setting": "Jurkat cells [1]; Jurkat cells, 5 at 0-2.0 mM, day 15", "result": "almost completely recovered from early inhibition"},
      {"measurement": "level required for even partial cell inhibition and toxicity, when used separately", "setting": "Jurkat cells [1]; Jurkat cells, day 15", "result": 2.0, "unit": "mm"}
    ]},
    {"compound": "CCCC(=O)OC[C@H]1OC(OC(=O)CCC)[C@@H](OC(=O)CCC)[C@@H](OC(=O)CCC)[C@@H]1OC(=O)CCC", "note": "(stereo partly drawn) [compound 3, 1,2,3,4,6-Penta-O-butanoyl-α,β-D-mannopyranose]", "values": [
      {"measurement": "apoptosis versus cell cycle arrest (summary)", "setting": "Jurkat cells [2]", "result": "only provided transient cell cycle arrest"},
      {"measurement": "reduced cell viability in trypan blue assay", "setting": "Jurkat cells [3]", "result": "not"},
      {"measurement": "long term growth characteristics (day 15)", "setting": "Jurkat cells [4]", "result": "resumed cell growth over the long term"}
    ]},
    {"compound": "CCCC(=O)OC[C@H]1O[C@H](OC(=O)CCC)[C@H](NC(C)=O)[C@@H](OC(=O)CCC)[C@@H]1OC(=O)CCC", "note": "[compound 2, 2-Acetamido-1,3,4,6-tetra-O-butanoyl-2-deoxy-α-D-glucopyranose]", "values": [
      {"measurement": "melting point", "result": "152 to 154", "unit": "°C"},
      {"measurement": "apoptosis versus cell cycle arrest (summary)", "setting": "Jurkat cells [2]", "result": "only provided transient cell cycle arrest"},
      {"measurement": "reduced cell viability in trypan blue assay", "setting": "Jurkat cells [3]", "result": "not"},
      {"measurement": "long term growth characteristics (day 15)", "setting": "Jurkat cells [4]", "result": "resumed cell growth over the long term"}
    ]},
    {"compound": "CCCC(=O)OCC(COC(=O)CCC)OC(=O)CCC", "note": "[compound 4, tributyrin, reference compound]", "values": [
      {"measurement": "apoptosis versus cell cycle arrest (summary)", "setting": "Jurkat cells [2]", "result": "only provided transient cell cycle arrest"},
      {"measurement": "long term growth characteristics (day 15)", "setting": "Jurkat cells [4]", "result": "resumed cell growth over the long term"},
      {"measurement": "cell proliferation at early time points (days 3 & 5)", "setting": "Jurkat cells [4]; days 3 and 5", "result": "minimal inhibition"}
    ]},
    {"compound": "CC(=O)N[C@@H]1C(O)O[C@H](CO)[C@@H](O)[C@@H]1O", "note": "(stereo partly drawn) [ManNAc, N-acetyl-D-mannosamine, reference compound]", "values": [
      {"measurement": "increase in total sialic acid", "setting": "[5]", "result": "20-30 fold"},
      {"measurement": "level required for even partial cell inhibition and toxicity, when used separately", "setting": "Jurkat cells [1]; Jurkat cells, day 15", "result": 100, "unit": "mM"}
    ]}
  ]
}
